Source: patent publication US8946240B2, “4-amino-3-(imidazolyl)-pyrazolo[3,4-D]pyrimidines” (ChemoCentryx, Inc., priority 2008, dated 2015)

target: T1, CCR1 (Homo sapiens, UniProt P32246); experiment: chemotaxis assay (THP-1 cells or monocytes migrating to CCR1 chemokine ligands); type: cell-based; settings: chemotaxis assay; compared with drawing 40
T1 construct: host or cells: THP-1 cells or freshly isolated monocytes
T1 sequence (P32246 1-355): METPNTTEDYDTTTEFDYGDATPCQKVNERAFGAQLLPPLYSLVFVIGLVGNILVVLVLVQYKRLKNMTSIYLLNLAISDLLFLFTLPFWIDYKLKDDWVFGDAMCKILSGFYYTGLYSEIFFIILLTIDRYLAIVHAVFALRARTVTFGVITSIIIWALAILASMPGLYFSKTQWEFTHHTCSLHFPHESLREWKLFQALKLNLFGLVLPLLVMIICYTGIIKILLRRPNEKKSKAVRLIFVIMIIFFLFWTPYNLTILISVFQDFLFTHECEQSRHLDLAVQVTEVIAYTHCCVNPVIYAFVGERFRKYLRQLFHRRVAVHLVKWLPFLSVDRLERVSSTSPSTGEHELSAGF
Experimental: THP-1 cells were obtained from ATCC (TIB-202) and cultured as a suspension in RPMI-1640 medium supplemented with 2 mM L-glutamine, 1.5 g/L sodium bicarbonate, 4.5 g/L glucose, 10 mM HEPES, 1 mM sodium pyruvate, 0.05% 2-mercaptoethanol and 10% FBS. Cells were grown under 5% CO2/95% air, 100% humidity at 37° C. and subcultured twice weekly at 1:5 (cells were cultured at a density range of 2×10^5 to 2×10^6 cells/mL) and harvested at 1×10^6 cells/mL. THP-1 cells express CCR1 and can be used in CCR1 binding and functional assays.
One of the primary functions of chemokines is their ability to mediate the migration of chemokine receptor-expressing cells, such as white blood cells. To confirm that a compound of interest inhibited not only CCR1 specific binding and signaling (at least as determined by calcium mobilization assays), but also CCR1 mediated migration, a chemotaxis assay was employed. THP-1 myelomonocytic leukemia cells, which resemble monocytes, as wells as freshly isolated monocytes, were used as targets for chemoattraction by CCR1 chemokine ligands (i.e., MIP-1α, CCL15/leukotactin). Cells were place in the top compartment of a microwell migration chamber, 5 μm pore polycarbonate, polyvinylpyrrolidone-coated filters in 96-well chemotaxis chambers (Neuroprobe; Gaithersburg, Md.) using chemotaxis buffer (Hank's balanced salt solution (HBSS) and 1% FBS. CCR1 chemokine ligands (i.e., MIP-1α, CCL15/Leukotactin; R&D Systems; Minneapolis, Minn.) are used to evaluate compound mediated inhibition of CCR1 mediated migration. Other chemokines (i.e., SDF-1α; R&D Systems; Minneapolis, Minn.) are used as specificity controls. The lower chamber was loaded with 29 μl of chemokine (i.e., 0.1 nM CCL15/Leukotactin) and varying amounts of compound; the top chamber contained 100,000 THP-1 or monocyte cells in 20 μl. […] To ascertain a compound of interest's affinity for CCR1 as well as to confirm its ability to inhibit CCR1 mediated cell migration, inhibitory activity was titered over a 1×10^−10 to 1×10^−4 M range of compound concentrations in this chemotaxis assay. In this assay, the amount of compound was varied; while cell number and chemokine agonist concentrations were held constant. After the chemotaxis chambers were incubated 1-2 hours at 37° C., the responding cells in the lower chamber were quantified by labeling with the CyQuant assay (Molecular Probes), a fluorescent dye method that measures nucleic acid content, and by measuring with a Spectrafluor Plus (Tecan). The computer program Prism from GraphPad, Inc. (San Diego, Calif.) was used to calculate IC50 values. IC50 values are those compound concentrations required to inhibit the number of cells responding to a CCR1 agonist by 50%.

Compound	IC50 relative to comparator compound
COc1cc(N2CCN(C(=O)Cn3nc(-c4ncc[nH]4)c4c(N)ncnc43)[C@@H](C)C2)c(F)cc1Cl [drawing 39]	an order of magnitude lower

same assay, conditions: versus imidazole-substituted pyrido[4,3-b]pyrazoles of related U.S. application Ser. No. 12/124,894

Compound	activity in direct comparisons relative to the related compounds tested
C[C@H]1CN(c2ccc(Cl)cc2F)CCN1C(=O)Cn1nc(-c2ncc[nH]2)c2c(N)ncnc21 [Compound 1.003]	at least an order of magnitude better
COc1cc(N2CCN(C(=O)Cn3nc(-c4ncc[nH]4)c4c(N)ncnc43)CC2)ccc1Cl [Compound 1.001]	at least an order of magnitude better
CCOc1cc(N2CCN(C(=O)Cn3nc(-c4ncc[nH]4)c4c(N)ncnc43)CC2)ccc1Cl [Compound 1.007]	at least an order of magnitude better
Nc1ncnc2c1c(-c1ncc[nH]1)nn2CC(=O)N1CCN(c2ccc(Cl)c(OC(F)(F)F)c2)CC1 [Compound 1.010]	at least an order of magnitude better

Results, then the molecule that gave them:

activity in direct comparisons relative to the related compounds tested	Compound
at least an order of magnitude better	COc1cc(N2CCN(C(=O)Cn3nc(-c4ncc[nH]4)c4c(N)ncnc43)[C@@H](C)C2)c(F)cc1Cl [Compound 1.006]
at least an order of magnitude better	CCOc1cc(N2CCN(C(=O)Cn3nc(-c4ncc[nH]4)c4c(N)ncnc43)[C@@H](C)C2)ccc1Cl [Compound 1.011]
at least an order of magnitude better	COc1cc(N2CCN(C(=O)Cn3nc(-c4ncc[nH]4)c4c(N)ncnc43)[C@@H](C)C2)ccc1Cl [Compound 1.004]
